Measurements reported in paper PMC7179297, “Preclinical Antimalarial Combination Study of M5717, a Plasmodium falciparum Elongation Factor 2 Inhibitor, and Pyronaridine, a Hemozoin Formation Inhibitor” (Antimicrobial Agents and Chemotherapy, 2020).
“And” between values parts separate entries of the source, which are not always exact repeats. Equal values may be shown once. Read-outs that look alike come from different tables or passages of the source. Marks after values point to notes of the source that are not given here.

Tests used:
[1] = tested on: P. falciparum Pf3D70087/N9; assay: Murine P. falciparum SCID model, efficacy and recrudescence; assay type: in vivo, Plasmodium falciparum; settings: for Parasitemia Day 3: day 3 = day of treatment
Method: Compound efficacy was assessed in the murine P. falciparum SCID model essentially as described by Jimenez-Díaz et al. ([20]). Briefly, alone or in combination, M5717 (succinate salt by Merck KGaA [MSC2576186-B4]) and pyronaridine (tetraphosphate salt, Sigma-Aldrich [P0049]) were formulated in 7% Tween80, 3% ethanol and administered to a cohort of age-matched female immunodeficient NOD-scid IL-2Rγ^null mice (Jackson Laboratory, Bar Harbor, ME). These mice had been previously engrafted with human erythrocytes (generously provided by the blood bank in Zürich, Switzerland). Prior to compound treatment, mice were intravenously infected with 2 × 10^7 P. falciparum Pf3D7^0087/N9 -infected erythrocytes (day 0) ([30]). On day 3 after infection, mice, in groups of 2 to 5, were randomly allocated to treatments that were administered with a single oral gavage at 10 ml/kg (Table 2 and Fig. 2). Parasitemia was measured by microscopy. Chimerism was monitored by flow cytometry using an anti-murine erythrocyte TER119 monoclonal antibody (Pharmingen, San Diego, CA) and SYTO-16 and then analyzed by flow cytometry in serial blood samples (2 μl) collected every 2 to 3 days until the completion of the experiment (Table 2, day 60 and Fig. 2, day 80). Parasite recrudescence was detected by microscopy. Once parasitemia exceeded 0.5%, then 100 to 500 μl of blood was collected and stored at –80°C for subsequent sequence analysis. Animals received a second treatment with the same dose and if applicable the same combination of compounds as previously administered in that dose group (Fig. 2). Efficacy was again monitored by microscopy. If recrudescence occurred again then new blood samples were stored at –80°C.
Time-to-recrudescence data were analyzed using the Kaplan-Meier method. Log-rank test was performed for two-group comparisons. Kaplan-Meier curves and log-rank test P values, as well as median estimates for time to recrudescence, are presented (SAS, Version 9.4. Cary, NC: SAS Institute Inc.; 2014).

[2] = Pharmacokinetic analysis in blood of mice from the efficacy study; assay type: in vivo; settings: for AUC(0-inf) / half-life: NOD-scid IL-2Rγnull, mouse, whole blood, po; for AUC(0-inf): mean ± SD; for half-life / pharmacokinetics in combination versus single-agent treatment / half-life (t1/2): mice; for half-life / half-life (t1/2): administered alone, single oral dose; for half-life: read-out: half-life (t1/2) (converted); for pharmacokinetics in combination versus single-agent treatment: Cmax, AUC0-inf and t1/2, entries 8 to 11
Method: The test compounds’ concentrations in blood were assessed in order to determine pharmacokinetic parameters in mice from the efficacy study. Peripheral blood samples (20 μl) were sampled at different time points (1, 2, 4, 6, 24, 48, 72, 96, 168, and 216 h post treatment), mixed with 20 μl of H2O Milli Q and immediately frozen on dry ice. Samples were stored at –80°C until analysis. Blood from control mice was used for bioanalysis calibration and QC purposes. For liquid chromatography with tandem mass spectrometry (LC-MS/MS) analysis, the frozen samples were thawed and treated with two volumes equivalent of acetonitrile containing the internal standard. After centrifugation, one volume equivalent of supernatant was diluted with one volume equivalent of water containing heptafluorobutyric acid (HFBA). The extracts were analyzed by LC-MS/MS (quantification by HESI ionization in positive ion mode) performed at Swiss BioQuant AG (Switzerland). A noncompartmental analysis was performed to determine pharmacokinetic parameters using the Phoenix WinNonlin program (version 6.3).
56 Pharmacokinetic parameters
57 The pharmacokinetic analysis was performed non-compartmentally using the extravascular model. For the analysis,
58 concentrations below the LLOQ were set to 0. The following pharmacokinetic parameters of the analytes were
59 derived from the concentration-time profiles.
C0 The pre-dose concentration assumed to be 0 on the day of oral dosing.
tmax Time where the concentration in matrix is the highest.
Cmax/dose Cmax normalized to the dose of 1 mg/kg.
AUC0-t Area under the matrix concentration -time curve from 0 h to time t calculated using
the linear trapezoidal rule , using C0 as defined above.
AUC0-∞ Area under the matrix concentration -time curve from 0 h to infinity calculated using
AUC0-∞/dose AUC0-∞ normalized to a dose of 1 mg/kg.
61 Software for calculations: Phoenix WinNonlin program (version 6.3).
62 All concentration values and pharmacokinetic parameters were rounded to 3 significant digits.
63 The numbers listed for %bias and %CV were rounded to 1 decimal place.

[3] = M5717 3 mg/kg single oral dose (entry 1)
[4] = M5717 6 mg/kg single oral dose (entry 2)
[5] = M5717 12 mg/kg single oral dose (entry 3)
[6] = M5717 30 mg/kg single oral dose (entry 4)
[7] = pyronaridine 6 mg/kg single oral dose (entry 5)
[8] = pyronaridine 12 mg/kg single oral dose (entry 6)
[9] = pyronaridine 12 mg/kg single oral dose (entry 6), LLQ <0.01%
[10] = pyronaridine 36 mg/kg single oral dose (entry 7)
[11] = pyronaridine 36 mg/kg single oral dose (entry 7), LLQ <0.01%

In the case of O=C(NCCN1CCCC1)c1cc(-c2ccc(CN3CCOCC3)cc2)nc2ccc(F)cc12 [M5717], the “Parasitemia Day 4” value [1, 3] is reported as 0.65%, the “Parasitemia Day 5” value [1, 3] is reported as 0.49% and the “Parasitemia Day 6” value [1, 3] is reported as 0.19%. The “Mean DoR (day of recrudescence)” value ([1]; M5717 3 mg/kg single oral dose (entry 1), uncorrected) was 6 days postinfection, the “Parasitemia Day 3” value [1, 3] was 1.2% and the “Parasitemia Day 4” value [1, 4] was 1.4%. For the same compound, the “Parasitemia Day 5” value [1, 4] was 1.03%, the “Parasitemia Day 6” value [1, 4] was 0.46% and the “Mean DoR (day of recrudescence)” value ([1]; M5717 6 mg/kg single oral dose (entry 2), uncorrected) was 17 days postinfection. The “Parasitemia Day 3” value [1, 4] was 1.26%, the “mice in which resistance evolved” value ([1]; M5717 12 mg/kg arm) was 5/5 and the “Parasitemia Day 4” value [1, 5] was 0.58%. The “Parasitemia Day 5” value [1, 5] was 0.53%, the “Parasitemia Day 6” value [1, 5] was 0.11% and the “Mean DoR (day of recrudescence)” value ([1]; M5717 12 mg/kg single oral dose (entry 3), uncorrected) was 24 days postinfection. For the same compound, the “Parasitemia Day 3” value [1, 5] was 0.81%, the “median time to recrudescence” value ([1]; M5717 12 mg/kg single oral dose, all mice n = 5, Kaplan-Meier, 12 mg/kg) was 19 days and the “day postinfection at which LLQ was reached” value ([1]; M5717 12 mg/kg single oral dose, n = 5 (Fig. 2A)) was 8 days. For the same compound, the “median time to recrudescence” value ([1]; M5717 12 mg/kg, mice showing no response to retreatment (M1, M2, M3, n = 3)) was 18 days, the “response to retreatment with the same dosing regimen” value ([1]; M5717 12 mg/kg, mice with early recrudescence (D17, D18, D19)) was “not susceptible” and the “response to retreatment with the same dosing regimen” value ([1]; M5717 12 mg/kg, mice with later recrudescence (D23, D24)) was “responded partially”. For the same compound, the “median time to recrudescence” value ([1]; M5717 12 mg/kg, mice with later recrudescence (M4 and M5, n = 2)) was 23.5 days, the “Parasitemia Day 4” value [1, 6] was 0.73% and the “Parasitemia Day 5” value [1, 6] was 0.54%. The “Parasitemia Day 6” value [1, 6] was 0.21%, the “Mean DoR (day of recrudescence)” value ([1]; M5717 30 mg/kg single oral dose (entry 4), uncorrected) was 24 days postinfection and the “Parasitemia Day 3” value [1, 6] was 0.89%. The “Parasitemia for the individual mice at blood draw” value ([1]; M5717 1x30 mg/kg single oral dose, recrudescent samples 1.1 and 1.2) was 3.25% and 0.50%, the “Recrudescence day post infection” value ([1]; M5717 1x30 mg/kg single oral dose, samples 1.1 and 1.2) was 24 and the “breakpoint between both phases of biphasic clearance of parasitemia” value ([1]; M5717 alone at 3, 6, 12 and 30 mg/kg) was “around 48 h”. The AUC(0-inf) ([2]; 3 mg/kg, M5717 3 mg/kg single oral dose (entry 1), read-out: M5717 exposure AUC0-inf) was 1.57 µg·h/mL, the AUC(0-inf) ([2]; 6 mg/kg, M5717 6 mg/kg single oral dose (entry 2), read-out: M5717 exposure AUC0-inf) was 3.39 µg·h/mL and the AUC(0-inf) ([2]; 12 mg/kg, M5717 12 mg/kg + pyronaridine 12 mg/kg single oral dose (entry 10), read-out: M5717 exposure AUC0-inf) was 6.65 µg·h/mL. It also gave an AUC(0-inf) ([2]; 12 mg/kg, M5717 12 mg/kg single oral dose (entry 3), read-out: M5717 exposure AUC0-inf) of 6.16 µg·h/mL, an AUC(0-inf) ([2]; 30 mg/kg, M5717 30 mg/kg single oral dose (entry 4), read-out: M5717 exposure AUC0-inf) of 16.9 µg·h/mL and an AUC(0-inf) ([2]; M5717 3 mg/kg + pyronaridine 6 mg/kg single oral dose (entry 8), read-out: M5717 exposure AUC0-inf) of 1.36 µg·h/mL. The AUC(0-inf) ([2]; M5717 6 mg/kg + pyronaridine 36 mg/kg single oral dose (entry 11), read-out: M5717 exposure AUC0-inf) was 2.98 µg·h/mL, the AUC(0-inf) ([2]; M5717 12 mg/kg + pyronaridine 6 mg/kg single oral dose (entry 9), read-out: M5717 exposure AUC0-inf) was 6.4 µg·h/mL and the half-life [2] was ~37 h. For the same compound, the “pharmacokinetics in combination versus single-agent treatment” value [2] was “unchanged” and the “half-life (t1/2)” value [2] was 37 h.
With COc1ccc2nc3cc(Cl)ccc3c(Nc3cc(CN4CCCC4)c(O)c(CN4CCCC4)c3)c2n1 [pyronaridine] the “Parasitemia Day 4” value [1, 7] was 0.09%, the “Parasitemia Day 5” value [1, 7] was 0.01% and the “Parasitemia Day 6” value ([1]; pyronaridine 6 mg/kg single oral dose (entry 5), LLQ <0.01%) was 0.00^d %. For the same compound, the “Parasitemia Day 3” value [1, 7] was 0.89%, the “Parasitemia Day 4” value [1, 8] was 0.13% and the “Mean DoR (day of recrudescence)” value ([1]; pyronaridine 12 mg/kg single oral dose (entry 6), uncorrected) was 35 days postinfection. The “Parasitemia Day 5” value [1, 9] was 0.00^d %, the “Parasitemia Day 6” value [1, 9] was 0.00^d % and the “Parasitemia Day 3” value [1, 8] was 1.51%. The “Parasitemia Day 4” value [1, 10] was 0.12%, the “Parasitemia Day 5” value [1, 11] was 0.00^d % and the “Parasitemia Day 6” value [1, 11] was 0.00^d %. For the same compound, the “Parasitemia Day 3” value [1, 10] was 1.61%, the “Mean DoR (day of recrudescence)” value ([1]; pyronaridine 36 mg/kg single oral dose (entry 7), experiment ended at day 60 with parasitemia <0.01%) was ≥60^e days postinfection and the AUC(0-inf) ([2]; 6 mg/kg, pyronaridine 6 mg/kg single oral dose (entry 5), read-out: Pyronaridine exposure AUC0-inf) was 6.56 µg·h/mL. It also gave an AUC(0-inf) ([2]; 12 mg/kg, M5717 12 mg/kg + pyronaridine 12 mg/kg single oral dose (entry 10), read-out: Pyronaridine exposure AUC0-inf) of 12.1 µg·h/mL, an AUC(0-inf) ([2]; 12 mg/kg, pyronaridine 12 mg/kg single oral dose (entry 6), read-out: Pyronaridine exposure AUC0-inf) of 14.5 µg·h/mL and an AUC(0-inf) ([2]; 36 mg/kg, pyronaridine 36 mg/kg single oral dose (entry 7), read-out: Pyronaridine exposure AUC0-inf) of 55.6 µg·h/mL. The AUC(0-inf) ([2]; M5717 3 mg/kg + pyronaridine 6 mg/kg single oral dose (entry 8), read-out: Pyronaridine exposure AUC0-inf) was 8.5 µg·h/mL, the AUC(0-inf) ([2]; M5717 6 mg/kg + pyronaridine 36 mg/kg single oral dose (entry 11), read-out: Pyronaridine exposure AUC0-inf) was 58.2 µg·h/mL and the AUC(0-inf) ([2]; M5717 12 mg/kg + pyronaridine 6 mg/kg single oral dose (entry 9), read-out: Pyronaridine exposure AUC0-inf) was 8.49 µg·h/mL. The half-life [2] was ~74 h, the “pharmacokinetics in combination versus single-agent treatment” value [2] was “No change” and the “half-life (t1/2)” value [2] was 74 h.
